# Assay results from US20070066682A1, “Arylalkylamine vanadium (V) salts for the treatment and/or prevention of Diabetes mellitus” (priority 2005, published 2007).
# Key:
# isolated rat adipocytes = assay: Glucose transport (2-deoxyglucose uptake) in isolated rat adipocytes; type: cell-based; conditions: isolated rat adipocytes; for stimulation of glucose transport in the presence of semicarbazide: 1 mM semicarbazide; for stimulation of glucose transport (2-DG uptake): 45 min incubation
# Protocol: In order to determine whether salts formed by vanadate and benzylamine could produce an insulin mimetic effect, the effect of increasing concentrations of hexaquis(benzylammonium) decavanadate on glucose transport activity in isolated rat adipocytes was tested. […] In similar assays, the activity of hexaquis(benzylammonium) decavanadate, pentaquis(benzylammonium) decavanadate and tetraquis(benzylammonium) decavanadate on glucose transport activity in isolated rat adipocytes were analyzed.
# To determine the possible insulin mimetic effect of certain vanadium arylalkylamines, the capacity of these compounds to enhance glucose transport in isolated rat adipocytes was tested. Adipose cells from Wistar rats were incubated for 45 minutes in basal conditions (Basal) or in the presence of 100 nM insulin (Ins), and different concentrations of. hexaquis(benzylammonium) decavanadate (B6V10) in the absence or in the presence of 1 mM semicarbazide (SCZ). Subsequently, 2-DG transport was measured over a 5 min. interval.
# The effects of the three tested compounds (B6V10, B5V10 and B4V10) were compared. Adipose cells from Wistar rats were incubated for 45 minutes in basal conditions (Basal) or in the presence of 100 nM insulin (Ins), and different concentrations of. decavanadate (V10), hexaquis(benzylammonium) decavanadate (B6V10), pentaquis(benzylammonium) decavanadate (B5V10) or tetraquis(benzylammonium) decavanadate (B4V10) in the absence or in the presence of 1 mM semicarbazide (SCZ). 2-DG transport was measured over 5 min. intervals. […]
# (§1) The effects of incubation with semicarbazide or phosphatidylinositol 3-kinase inhibitors were also investigated. Adipose cells were incubated with B6V10 (25 μM, 45 min) in the absence or presence of wortmannin (2 μM, 45 min), LY294002 (10 μM, 45 min) or semicarbazide (1 mM, 45 min) and thereafter 2-deoxyglucose uptake was determined during 5 min.
# [1] = system: streptozotocin-induced diabetic rats; assay: Chronic oral treatment of streptozotocin (45 mg/kg) diabetic rats, glycemia; type: in vivo, rat; conditions: for glycemia during chronic oral treatment: daily oral, 17 days (5 then 10 μmol/kg/day), STZ 45 mg/kg rats
# Protocol: (§2) Male Wistar rats weighting 180-220 g were purchased from Harlan (Interfauna Ibèrica S.A., Spain). Diabetes was induced by a single intraperitoneal injection of a freshly prepared solution of streptozotocin (in some studies the dose was 45 mg/kg body weight and in some others 100 mg/kg body weight dissolved in 50 mM citrate buffer, pH 4.5). Only diabetic animals with glycemia above 300 mg/dl were used. The animals were housed in animal quarters at 22° C., with a 12 h light/12 h dark cycle and were fed ad libitum. All procedures used were approved by the animal ethical committee of the University of Barcelona, Spain. Male mice C57 BL/Ks bearing the db/db mutation (Jackson Laboratories, Bar Harbor, Me.) were purchased from Harlan France (Gannat, France). C57BL/6J male mice were assigned for 16 weeks to very high-fat diet containing (in kcal): 72% from fat, 28% from proteins and <1% from carbohydrates (Burcelin et al., 2002, Am. J. Physiol. Endocrinol. Metab 282: E834-E842).
# (§3) Osmotic minipumps delivering B6V10 (2.5 μmol/kg body wt/day) or decavanadate (2.5 μmol/kg body wt/day) were implanted subcutaneously in diabetic rats anaesthetised by ketamine hydrochloride (95 mg/kg) and xylasine (10 mg/kg). […] Glycemia was measured on arterio-venous blood collected from the tail vessels at 09:00 am for two weeks, before the administration of vanadate. Insulin concentrations were determined before and after treatment. In another set of experiments, B6V10 was orally administered at a single dose of 5 μmol/kg/day during the first week and 10 μmol/kg/day during 2 additional weeks by gastric gavage. A control group received the corresponding decavanadate salt in the absence of benzylamine. At the end of the treatment, animals were sacrificed and the liver, fat pad, heart and lung were kept at −80° C. and the plasma at −20° C. until their use for in vitro analysis.
# (§4) In glucose tolerance tests and in chronic treatments, circulating glucose concentrations were determined by a rapid glucose analyser (Accutrend® Sensor Comfort, Roche, Basel. Switzerland). Plasma insulin (IRI) concentration was determined by ELISA method using a kit obtained from Crystal Chem Inc. (Downers Grove, Ill.). Plasma triglycerides (Biosystems, Barcelona, Spain) and NEFAS (Wako Chemicals, Neuss, Germany) were determined with standard […] methods.
# The effect of the oral administration of hexaquis(benzylammonium) decavanadate on glycemia from diabetic rats was also studied. Diabetes was induced in rats by intravenous administration of streptozotocin, and subsequently, a hexaquis(benzylammonium) decavanadate or sodium decavanadate unique dose was administered to the rats. […] After seven days of treatment, the dose was increased at 10 μmol/kg/day which was maintained for an additional ten days. […] Thus, glycemia in sodium decavanadate treated rats was approximately 450 mg/dl and glycemia of hexaquis(benzylammonium) decavanadate treated rats was approximately 250 mg/dl.
# (§5) Chronic in vivo efficacy of B6V10 was evaluated in streptozotocin-induced diabetic rats and in db/db mice. Streptozotocin-induced (45 mg/kg) diabetic rats were subcutaneously treated with hexaquis(benzylammonium) decavanadate (2.5 μmol/kg) (B6V10, solid squares, FIG. 8A) or with decavanadate (2.5 μmol/kg) (V10, open circles, FIG. 8A) delivered subcutaneously by osmotic minipumps implanted in the dorsal region. Diabetic rats were also sham-operated (untreated, solid diamonds, FIG. 8A). […] These experiments were repeated using an oral administration protocol. Streptozotocin-induced (45 mg/kg) diabetic rats were orally treated with hexaquis(benzylammonium) decavanadate (5 μmol/kg from day 0 to day 7 and 10 μmol/kg/day from day 7 to day 17) (B6V10, solid squares, FIG. 8B) or received decavanadate (10 μmol/kg) (V10, open circles, FIG. 8B). Nondiabetic rats were also untreated (solid triangles, FIG. 8B).
# [2] = system: streptozotocin-induced diabetic rat with undetectable circulating insulin; assay: Subcutaneous treatment of streptozotocin (100 mg/kg) diabetic rats with undetectable circulating insulin; type: in vivo; conditions: 2.5 μmol/kg subcutaneous minipumps, STZ 100 mg/kg
# Protocol: as §2, §4
# To this end, rats were made diabetic by the injection of a large dose of streptozotocin (100 mg/kg) that eliminates β-pancreatic insulin content. […] These streptozotocin-induced diabetic rats were subcutaneously treated with B6V10 (2.5 μmol/kg) (solid squares, FIG. 9A) delivered by osmotic minipumps or left untreated (solid circles, FIG. 9A). Sham-operated nondiabetic rats were also untreated (solid triangles, FIG. 9A).
# The concentration of circulating glucose under these conditions was also assayed. After 28 days of treating diabetic rats with hexaquis(benzylammonium) decavanadate (2.5 μmol/kg) (wide striped bars, FIG. 9B), or with decavanadate (close striped bars, FIG. 9B) delivered by osmotic minipumps, plasma insulin and glucose were measured. Untreated diabetic (solid bars, FIG. 9B) or nondiabetic rats (open bars, FIG. 9B) were similarly assayed as controls.
# protein kinase B = assay: Protein kinase B phosphorylation in isolated rat adipocytes; type: cell-based; conditions: 25 μM, rat adipocytes
# Protocol: Isolated fat cells were disrupted for total membrane preparation by hypo-osmotic lysis in a 20 mM HES buffer and an antiprotease and antiphosphatase cocktail as reported by Abella et al. (2003, Diabetes 52: 1004-1013). Protein concentrations were determined by the Bradford method (Bradford, 1976, Anal. Biochem. 72: 248-254) with gamma-globulin as protein concentration standard. Immunoprecipitation and immunoblot assays were performed as previously described by Abella et al. (2004, Id.) with the use of a monoclonal antiphosphotyrosine antibody for the immunoprecipitation and an anti-insulin receptor antibody for immunoblotting, respectively. SDS-polyacrylamide gel electrophoresis was performed on membrane proteins following conventional procedures. Proteins were transferred to Immobilon and immunoblotting was performed as reported by Castello et al. (1994, J. Biol. Chem. 269: 5905-5912).
# The mechanism of action of B6V10 was investigated in isolated rat adipocytes. Adipose cells from Wistar rats were incubated for different times in the presence of 25 μM hexaquis(benzylammonium) decavanadate (B6V10). Cells were also incubated in the presence of insulin (100 nM, 45 min), decavanadate (25 μM, 45 min) or semicarbazide (1 mM, 45 min). Subsequently, 2-deoxyglucose uptake (results shown in FIG. 7A), tyrosine phosphorylation of insulin receptor (FIG. 7B), phospho-Thr^308-protein kinase B (FIG. 7C) and phospho-Ser^473-protein kinase B (FIG. 7D) was measured. […] The phosphorylation of protein kinase B induced by B6V10 was parallel to activation of glucose transport (FIG. 7C and 7D).
# as §1
# [3] = system: streptozotocin-induced diabetic rats; assay: Chronic subcutaneous (osmotic minipump) treatment of streptozotocin (45 mg/kg) diabetic rats, glycemia; type: in vivo, rat; conditions: 2.5 μmol/kg/day by osmotic minipumps, about two weeks, STZ 45 mg/kg rats
# Protocol: as §2, §3, §4
# The effect of chronic administration of hexaquis(benzylammonium) decavanadate on glycemia from diabetic rats was determined. Thus, diabetes was induced in rats by intravenous administration of streptozotocin, which destroys the β-pancreatic cells that produce insulin.
# as §5, with “Nondiabetic rats were also untreated (solid triangles, FIG. 8B).” left out
Substance,stimulation of glucose transport in the presence of semicarbazide (isolated rat adipocytes; dihydrate),"stimulation of glucose transport in the presence of semicarbazide (isolated rat adipocytes; listed as tetraquis(benzylammonium) decavanadate, Dihydrate)",stimulation of glucose transport (2-DG uptake) (isolated rat adipocytes),"stimulation of glucose transport in the presence of semicarbazide (isolated rat adipocytes; listed as pentaquis(benzylammonium) decavanadate, dihydrate)",glycemia during chronic oral treatment [1],glycemia during chronic oral treatment ([1]; listed as sodium decavanadate),"glycemia ([1]; oral treatment, after dose increase to 10 μmol/kg/day)",glycemia in diabetic rats with undetectable insulin [2],protein kinase B phosphorylation (protein kinase B),glycemia during chronic subcutaneous treatment [3],glycemia during chronic subcutaneous treatment ([3]; listed as sodium decavanadate)
Tetraquis(Benzylammonium) Decavanadate (V) Dihydrate [Entry B4V10],blocked in the presence of semicarbazide,this effect was inhibited,pronounced stimulation on glucose transport,,,,,,,,
pentaquis(benzylammonium) decavanadate (V) dihydrate [Entry B5V10],blocked in the presence of semicarbazide,,pronounced stimulation on glucose transport,this effect was inhibited,,,,,,,
"sodium decavanadate [Entry V10, reference compound]",,,did not stimulate glucose transport,,did not alter glycemia,not affected substantially,approximately 450 mg/dl,did not show any change in circulating glucose,not observed,did not alter glycemia,did not modify substantially its glycemia
